The series can be described thus: gradient 5% acetonitrile 3 min, to 50% in 2 min, to 85% in 15 min, held 3 min, 100 µL/min. Conditions: column: Zorbax Extend-C18 2.1 x 50 mm; eluents: water / acetonitrile, 0.1% formic acid. The method in brief:
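Pure standards were run in mixtures of ~100 molecules by HPLC coupled to a quadrupole time-of-flight mass spectrometer. The column was a Zorbax Extend-C18 (2.1 × 50 mm, 1.8 μm) at 100 μL/min, with water and acetonitrile each containing 0.1% formic acid, in positive and negative ionization mode. Dead and dwell volumes were 40 μL and 900 μL. Retention time was taken from computationally picked adduct peaks, each manually inspected, with data collected over 3 months.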
The compound `O=C(Cn1cccc1-c1nc(-c2ccc(Cl)cc2)cs1)NCc1ccco1` showed an RP-LC retention time of 1080 s. The result for `Cc1ccc(-n2nc(C)c3sc(N4CCCC(C(=O)Nc5cc(Cl)ccc5C)C4)nc32)cc1` (centres undefined) reads 1360 s; that for `O=c1n(Cc2cccc(F)c2)nc2ccc(S(=O)(=O)N3CCCC3)cn12`, 856 s. The result for `O=C(Cc1ccsc1)NCc1cccnc1Oc1ccccc1` reads 704 s; that for `CCCN1C(=O)Cc2ccccc2C1C(=O)NC1CCCCCC1` (centres undefined), 862 s; that for `Cc1cc(C)c2[nH]c3c(c(=O)c2c1)CN(CC(=O)Nc1cc(F)cc(F)c1)CC3`, 673 s. `CNc1oc(-c2ccco2)nc1S(=O)(=O)c1ccc(F)cc1` gave an RP-LC retention time of 809 s. The compound `O=C1CCCc2cc(S(=O)(=O)N3CCC(C(=O)NCCC4=CCCCC4)CC3)ccc2N1` showed an RP-LC retention time of 796 s. Under `Cc1ccc(CNC(=O)C2(C)CN(S(C)(=O)=O)CC(=O)N2c2ccc(C(C)C)cc2)cc1` (centres undefined) stands 935 s.

In the case of `O=C(c1ccc(-c2cccnc2)nc1)N1CCN(c2ccc(F)cc2)CC1`, the RP-LC retention time is 671 s. The result for `CCCn1cc(C(=O)NCc2cccnc2)c2cccnc21` reads 580 s; that for `CCN1C(=O)C2(CCN(C(=O)C3CCCCC3)CC2)c2ccccc21`, 950 s. With `Cc1nn(-c2ccccc2)c(C)c1S(=O)(=O)N1CCC(C(=O)Nc2ccc(C(C)C)cc2)CC1`, the RP-LC retention time came out at 1100 s.

Take `COc1ccc2c(c1)C1(CCN(C(=O)c3cccc(F)c3)C1)C(=O)N2` (centres undefined): the RP-LC retention time is 717 s.

Compound `O=C(COc1cccc2c(=O)[nH]ccc12)c1ccccc1` showed an RP-LC retention time of 806 s. Under `O=C(C1CCC1)N1CCCCCC1CN1CCOCC1` (centres undefined) stands 595 s.

`Cc1cccc2nnc(N3CCC(C(=O)N4CCC(C)CC4)CC3)n12`: the RP-LC retention time turned out to be 663 s. Under `O=c1c2cc(-c3ccc(F)cc3)nn2cnn1Cc1nc(-c2ccc(Cl)cc2)no1` stands 1190 s; under `O=C(CN1CC=C(c2cnn(-c3ccccc3)c2)CC1)Nc1ccccc1Cl`, 690 s.

The compound `O=C1CC(c2nc(-c3ccc4c(c3)OCO4)no2)CN1c1ccc(F)cc1` (centres undefined) displayed an RP-LC retention time of 923 s. Under `CN(C)CCCN1c2ccccc2Sc2ccc3ccccc3c21` stands 772 s; under `COc1ccc(C(=O)N2CCC(c3nc4cccnc4n3C)C2)cc1F` (centres undefined), 651 s; under `CCN1C(=O)c2cccnc2Sc2cc(CNC(=O)c3cccc(OC)c3)ccc21`, 762 s. In the case of `Oc1ccc(-c2csc(Nc3ccccn3)n2)cc1O`, the RP-LC retention time was 621 s. Under `Cn1ncc2c3ccccc3n(CC(=O)N3CCN(C(=O)c4ccco4)CC3)c2c1=O` stands 668 s; under `COc1ccc(-c2n[nH]c3c2C(c2ccc(O)cc2)N(C)C3=O)cc1` (centres undefined), 667 s. Under `COCCCNC(=O)C1CCCN(c2cnc3nc(C)c(C)nc3c2)C1` (centres undefined) stands 619 s.

As for `N#Cc1cccc(C(=O)N2CCN(c3cc(-c4ccccc4)[nH]n3)CC2)c1`, the RP-LC retention time was 749 s. Under `Cc1ccc(N2CC(c3nc(Cn4cnc5ccccc5c4=O)no3)CC2=O)cc1C` (centres undefined) stands 789 s; under `Cc1ccc2nc(C(=O)N3CCN(c4ccccn4)CC3)cn2c1`, 538 s. The result for `COc1ccc(-c2nc3cnccn3c2Nc2ccc(C(=O)NCC3CCCO3)cc2)cc1` (centres undefined) reads 649 s.

The compound `Cc1ccc(CNC(=O)c2cc3c(s2)N(C)CCC3)cc1` gave an RP-LC retention time of 977 s. Under `CCOC(=O)c1sc(NC(=O)CSc2nc3ccccc3[nH]2)nc1C` stands 810 s; under `O=C(Nc1ccc2c(c1)OCCO2)N1CC(c2nc(CCOCC3CC3)no2)C1`, 754 s. The result for `O=C(Cc1csc(NC(=O)c2ccco2)n1)NCc1cccs1` reads 668 s; that for `CCN1C(=O)c2cc(S(=O)(=O)Nc3ccc(F)cc3C)ccc2Oc2cccnc21`, 1010 s. The compound `Cc1ccnc(NC(=O)C2CC(=O)N(c3n[nH]c4ccccc34)C2)c1` (centres undefined) yielded an RP-LC retention time of 592 s. On to `CCn1c(C(=O)NCc2ccc3c(c2)OCO3)cc2c(-c3cccs3)nn(-c3ccccc3)c21`, for which the RP-LC retention time is 1120 s. The result for `COc1ccc(-c2nc3cnccn3c2Nc2ccc(C(=O)N3CCOCC3)cc2)cc1` reads 664 s. Under `COc1ccc(C(=O)NC2CCN(c3ccc(N4CCSCC4)nn3)CC2)c(OC)c1` stands 644 s; under `CCc1ccc(CNC(=O)C2CCCN(c3ncnc4c3oc3ccccc34)C2)cc1` (centres undefined), 871 s; under `COc1ccc(Cl)cc1NC(=O)N1CCC2(CC1)N=C(c1ccccc1)C(=O)N2`, 909 s.

`Cc1cnc(C(=O)N2CCCCCCNC(=O)[C@@H]3CCC[C@@H]32)cn1` yielded an RP-LC retention time of 649 s. Under `Cc1ccc2[nH]cc(CCNC(=O)CCc3nnc(C(=O)Nc4ccccc4)s3)c2c1` stands 875 s; under `O=C(CN1CCCC(COCc2ccccc2)C1)NCc1ccc2c(c1)OCO2` (centres undefined), 592 s. Under `Cc1cccc2nc(-c3ccc(Cl)cc3)c(Nc3ccc4c(c3)OCCO4)n12` stands 701 s. `COc1ccccc1-c1nnc2sc(-c3cc(CC(C)C)[nH]n3)nn12`: the RP-LC retention time came to 891 s. The result for `O=C(CCC(=O)N1CC2CCCN2c2ccccc21)N1CCN(Cc2ccc3c(c2)OCO3)CC1` (centres undefined) reads 692 s.

Take `O=C1CC(c2nc(-c3ccc4c(c3)OCO4)no2)CN1c1cccc(Cl)c1` (centres undefined): the RP-LC retention time came to 999 s. Under `Cc1nc2c(c(N3CCSCC3)n1)CCC2` stands 588 s; under `CC(C)(C)C(=O)N1CCC(C(=O)Nc2nc3ccc(S(C)(=O)=O)cc3s2)CC1`, 718 s.

As to `Cc1cccc(C)c1-n1ccn(Cc2nc(-c3ccc(C(C)(C)C)cc3)no2)c(=O)c1=O`, the RP-LC retention time amounted to 1120 s.

For `O=C(NCc1ccc2c(c1)OCO2)C1CCCN(c2nnc3ccc(Cl)cn23)C1` (centres undefined), the RP-LC retention time is 735 s. Under `O=S(=O)(c1cccc(-c2nnc(-c3ccc(F)cc3)o2)c1)N1CCCCC1` stands 1080 s.

As for `O=C(NCC1(c2cccs2)CC1)c1ccsc1`, the RP-LC retention time is 791 s. The result for `O=C(c1ccco1)N1CCN(S(=O)(=O)CCCOc2ccc3c(c2)OCO3)CC1` reads 764 s. The result for `CCn1c(=O)oc2cc(-c3noc(-c4cccc(F)c4)n3)ccc21` reads 1110 s; that for `CC(C)n1nnc2cc(S(=O)(=O)N3CCCC(C(=O)N4CCC(C(N)=O)CC4)C3)ccc21` (centres undefined), 652 s; that for `CCCc1cc(N2CCN(C(=O)c3ccc(N(C)C)cc3)CC2)nc2nncn12`, 612 s.

The values are drawn from the METLIN SMRT retention time set (Domingo-Almenara et al. 2019).
